Test results: PubChem BioAssay AID1963972 (Molecular Pharmacology Branch, DTP, NCI, 2024)

Tested on: 945468-187-T-J2-PDC spheroids viability
Assay: Anticancer human tumor 945468-187-T-J2-PDC patient-derived rectal carcinoma cell line growth inhibition [PI3K]
Conditions: spheroids with HUVEC and MSC; for IC50: curve of first compound; for viability, T/C: stronger effect = lower value
In short: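 Tumor cells were combined with HUVEC and MSCs into spheroids, then dosed with PI3K-inhibitor combinations over half-log ranges capped near clinical Cmax or 10 microM.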

[1] = second compound 0.0316 µM, first compound 0.0316 µM
[2] = second compound 0.0316 µM, first compound 0.1 µM
[3] = second compound 0.1 µM, first compound 0.0316 µM
[4] = second compound 0.1 µM, first compound 0.1 µM
[5] = second compound 0.316 µM, first compound 0.0316 µM
[6] = second compound 0.316 µM, first compound 0.1 µM
[7] = second compound 1 µM, first compound 0.0316 µM
[8] = second compound 1 µM, first compound 0.1 µM
[9] = second compound 3.16 µM, first compound 0.0316 µM
[10] = second compound 3.16 µM, first compound 0.1 µM
[11] = second compound 10 µM, first compound 0.0316 µM
[12] = second compound 10 µM, first compound 0.1 µM
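Also: spheroids exposed to compounds for seven days before reading.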

Compound: CC(C)n1nc(-c2ccc3oc(N)nc3c2)c2c(N)ncnc21 + Cc1nc(NC(=O)N2CCCC2C(N)=O)sc1-c1ccnc(C(C)(C)C(F)(F)F)c1
- IC50 (second compound 0.0316 µM): > 0.1 µM
- IC50 (second compound 0.1 µM): > 0.1 µM
- IC50 (second compound 0.316 µM): > 0.1 µM
- IC50 (second compound 1 µM): > 0.1 µM
- IC50 (second compound 3.16 µM): 0.0583 µM
- IC50 (second compound 10 µM): 0.0213 µM
- viability, T/C (second compound 0.0316 µM, first compound 0.000316 µM): 91.4%
- viability, T/C (second compound 0.0316 µM, first compound 0.001 µM): 109%
- viability, T/C (second compound 0.0316 µM, first compound 0.00316 µM): 69.1%
- viability, T/C (second compound 0.0316 µM, first compound 0.01 µM): 83.5%
- viability, T/C [1]: 77.9%
- viability, T/C [2]: 71.2%
- viability, T/C (second compound 0.1 µM, first compound 0.000316 µM): 103%
- viability, T/C (second compound 0.1 µM, first compound 0.001 µM): 77.7%
- viability, T/C (second compound 0.1 µM, first compound 0.00316 µM): 88.6%
- viability, T/C (second compound 0.1 µM, first compound 0.01 µM): 81.4%
- viability, T/C [3]: 84.9%
- viability, T/C [4]: 55.6%
- viability, T/C (second compound 0.316 µM, first compound 0.000316 µM): 65.9%
- viability, T/C (second compound 0.316 µM, first compound 0.001 µM): 68.2%
- viability, T/C (second compound 0.316 µM, first compound 0.00316 µM): 80.4%
- viability, T/C (second compound 0.316 µM, first compound 0.01 µM): 81.5%
- viability, T/C [5]: 75.3%
- viability, T/C [6]: 68.8%
- viability, T/C (second compound 1 µM, first compound 0.000316 µM): 70.3%
- viability, T/C (second compound 1 µM, first compound 0.001 µM): 80.6%
- viability, T/C (second compound 1 µM, first compound 0.00316 µM): 73.2%
- viability, T/C (second compound 1 µM, first compound 0.01 µM): 91.5%
- viability, T/C [7]: 75.3%
- viability, T/C [8]: 57.9%
- viability, T/C (second compound 3.16 µM, first compound 0.000316 µM): 77%
- viability, T/C (second compound 3.16 µM, first compound 0.001 µM): 68.9%
- viability, T/C (second compound 3.16 µM, first compound 0.00316 µM): 75.2%
- viability, T/C (second compound 3.16 µM, first compound 0.01 µM): 78.1%
- viability, T/C [9]: 64%
- viability, T/C [10]: 37.6%
- viability, T/C (second compound 10 µM, first compound 0.000316 µM): 77.5%
- viability, T/C (second compound 10 µM, first compound 0.001 µM): 62.4%
- viability, T/C (second compound 10 µM, first compound 0.00316 µM): 66.9%
- viability, T/C (second compound 10 µM, first compound 0.01 µM): 58.7%
- viability, T/C [11]: 46.5%
- viability, T/C [12]: 27.2%

Compound: CCCS(=O)(=O)Nc1ccc(F)c(C(=O)c2c[nH]c3ncc(-c4ccc(Cl)cc4)cc23)c1F + Cc1nc(NC(=O)N2CCCC2C(N)=O)sc1-c1ccnc(C(C)(C)C(F)(F)F)c1
- IC50 (second compound 0.0316 µM): 4.36 µM
- IC50 (second compound 0.1 µM): 3.88 µM
- IC50 (second compound 0.316 µM): 5.58 µM
- IC50 (second compound 1 µM): 4.71 µM
- IC50 (second compound 3.16 µM): 4.23 µM
- IC50 (second compound 10 µM): 4.46 µM
- viability, T/C [1]: 84.6%
- viability, T/C [2]: 96.3%
- viability, T/C (second compound 0.0316 µM, first compound 0.316 µM): 67.6%
- viability, T/C (second compound 0.0316 µM, first compound 1 µM): 80.9%
- viability, T/C (second compound 0.0316 µM, first compound 3.16 µM): 68.5%
- viability, T/C (second compound 0.0316 µM, first compound 10 µM): 2.55%
- viability, T/C [3]: 87.3%
- viability, T/C [4]: 66.7%
- viability, T/C (second compound 0.1 µM, first compound 0.316 µM): 86.7%
- viability, T/C (second compound 0.1 µM, first compound 1 µM): 108%
- viability, T/C (second compound 0.1 µM, first compound 3.16 µM): 59.9%
- viability, T/C (second compound 0.1 µM, first compound 10 µM): 4.2%
- viability, T/C [5]: 98.5%
- viability, T/C [6]: 84.8%
- viability, T/C (second compound 0.316 µM, first compound 0.316 µM): 74.3%
- viability, T/C (second compound 0.316 µM, first compound 1 µM): 84.8%
- viability, T/C (second compound 0.316 µM, first compound 3.16 µM): 81.9%
- viability, T/C (second compound 0.316 µM, first compound 10 µM): 17.3%
- viability, T/C [7]: 78%
- viability, T/C [8]: 84.7%
- viability, T/C (second compound 1 µM, first compound 0.316 µM): 71.3%
- viability, T/C (second compound 1 µM, first compound 1 µM): 67.5%
- viability, T/C (second compound 1 µM, first compound 3.16 µM): 73.7%
- viability, T/C (second compound 1 µM, first compound 10 µM): 5.17%
- viability, T/C [9]: 68.8%
- viability, T/C [10]: 66%
- viability, T/C (second compound 3.16 µM, first compound 0.316 µM): 78.5%
- viability, T/C (second compound 3.16 µM, first compound 1 µM): 72.5%
- viability, T/C (second compound 3.16 µM, first compound 3.16 µM): 63.4%
- viability, T/C (second compound 3.16 µM, first compound 10 µM): 8.66%
- viability, T/C [11]: 60.4%
- viability, T/C [12]: 61.4%
- viability, T/C (second compound 10 µM, first compound 0.316 µM): 80%
- viability, T/C (second compound 10 µM, first compound 1 µM): 55.6%
- viability, T/C (second compound 10 µM, first compound 3.16 µM): 70.2%
- viability, T/C (second compound 10 µM, first compound 10 µM): 13.4%
